Laboratory results: PubChem BioAssay (NCI)
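1) Cells in 96-well plates. 2) Compound, 48 h, 5 concentrations. 3) Linear interpolation between surrounding doses. 4) Unreached endpoint = highest concentration. The concentration for 50% growth inhibition is given as GI50. TGI: total growth inhibition.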

Experiments:
Assay in all cases: DTP human tumour cell line panel, 48 h
HOP-92 NSCLC = tested on: HOP-92 NSCLC
UO-31 renal = tested on: UO-31 renal
NCI-H226 lung = tested on: NCI-H226 lung
SK-MEL-28 melanoma = tested on: SK-MEL-28 melanoma
HT29 colon = tested on: HT29 colon
NCI-H23 lung = tested on: NCI-H23 lung
K-562 leukemia = tested on: K-562 leukemia
M14 melanoma = tested on: M14 melanoma
MDA-MB-231 breast = tested on: MDA-MB-231 breast
COLO 205 colon = tested on: COLO 205 colon
MALME-3M melanoma = tested on: MALME-3M melanoma
HS 578T breast = tested on: HS 578T breast
HCT-116 colon = tested on: HCT-116 colon
786-0 renal = tested on: 786-0 renal
MCF7 breast = tested on: MCF7 breast
A498 renal = tested on: A498 renal
SF-268 CNS = tested on: SF-268 CNS
LOX IMVI melanoma = tested on: LOX IMVI melanoma
RPMI-8226 leukemia = tested on: RPMI-8226 leukemia
UACC-257 melanoma = tested on: UACC-257 melanoma
TK-10 renal = tested on: TK-10 renal
HCC-2998 colon = tested on: HCC-2998 colon
RXF 393 renal = tested on: RXF 393 renal
DU-145 prostate = tested on: DU-145 prostate
T-47D breast = tested on: T-47D breast
MOLT-4 leukemia = tested on: MOLT-4 leukemia
SK-OV-3 ovarian = tested on: SK-OV-3 ovarian
EKVX NSCLC = tested on: EKVX NSCLC
SW-620 colon = tested on: SW-620 colon
HCT-15 colon = tested on: HCT-15 colon
NCI/ADR-RES ovarian = tested on: NCI/ADR-RES ovarian
OVCAR-4 ovarian = tested on: OVCAR-4 ovarian
CAKI-1 renal = tested on: CAKI-1 renal
SK-MEL-2 melanoma = tested on: SK-MEL-2 melanoma
U251 CNS = tested on: U251 CNS
NCI-H522 lung = tested on: NCI-H522 lung
HL-60(TB) leukemia = tested on: HL-60(TB) leukemia
NCI-H460 lung = tested on: NCI-H460 lung
OVCAR-3 ovarian = tested on: OVCAR-3 ovarian
ACHN renal = tested on: ACHN renal
PC-3 prostate = tested on: PC-3 prostate
SK-MEL-5 melanoma = tested on: SK-MEL-5 melanoma
SR leukemia = tested on: SR leukemia
MDA-MB-435 = tested on: MDA-MB-435
SNB-19 CNS = tested on: SNB-19 CNS
HOP-62 NSCLC = tested on: HOP-62 NSCLC
IGROV1 ovarian = tested on: IGROV1 ovarian
SF-539 CNS = tested on: SF-539 CNS
KM12 colon = tested on: KM12 colon
SF-295 CNS = tested on: SF-295 CNS
CCRF-CEM leukemia = tested on: CCRF-CEM leukemia
OVCAR-8 ovarian = tested on: OVCAR-8 ovarian
BT-549 breast = tested on: BT-549 breast
OVCAR-5 ovarian = tested on: OVCAR-5 ovarian
A549 NSCLC = tested on: A549 NSCLC
SNB-75 CNS = tested on: SNB-75 CNS

COC(=O)[C@]12CC[C@@H](C)[C@H](C)[C@@H]1C1=CC[C@@H]3[C@@]4(C)C[C@@H](O)[C@H](O)[C@@](C)(CO)C4=CC[C@@]3(C)[C@]1(C)CC2
GI50 (HOP-92 NSCLC): 19.2 µM
TGI (HOP-92 NSCLC): 34.9 µM
GI50 (UO-31 renal): 14.6 µM
TGI (UO-31 renal): 30.1 µM
GI50 (NCI-H226 lung): 20.1 µM
TGI (NCI-H226 lung): 40.4 µM
GI50 (SK-MEL-28 melanoma): 19.2 µM
TGI (SK-MEL-28 melanoma): 40.9 µM
GI50 (HT29 colon): 15.9 µM
TGI (HT29 colon): 33.5 µM
GI50 (NCI-H23 lung): 16.2 µM
TGI (NCI-H23 lung): 33.6 µM
GI50 (K-562 leukemia): 17.5 µM
TGI (K-562 leukemia): 36.6 µM
GI50 (M14 melanoma): 17.5 µM
TGI (M14 melanoma): 33.6 µM
GI50 (MDA-MB-231 breast): 16.3 µM
TGI (MDA-MB-231 breast): 34.4 µM
GI50 (COLO 205 colon): 17.9 µM
TGI (COLO 205 colon): 34.4 µM
GI50 (MALME-3M melanoma): 17.5 µM
TGI (MALME-3M melanoma): 31.3 µM
GI50 (HS 578T breast): 17.9 µM
TGI (HS 578T breast): 36.4 µM
GI50 (HCT-116 colon): 19 µM
TGI (HCT-116 colon): 37.2 µM
GI50 (786-0 renal): 18.5 µM
TGI (786-0 renal): 34.5 µM
GI50 (MCF7 breast): 14.2 µM
TGI (MCF7 breast): 31.2 µM
GI50 (A498 renal): 19 µM
TGI (A498 renal): 34 µM
GI50 (SF-268 CNS): 17.4 µM
TGI (SF-268 CNS): 34.8 µM
GI50 (LOX IMVI melanoma): 16.8 µM
TGI (LOX IMVI melanoma): 34.9 µM
GI50 (RPMI-8226 leukemia): 13.9 µM
TGI (RPMI-8226 leukemia): 34.6 µM
GI50 (UACC-257 melanoma): 20.1 µM
TGI (UACC-257 melanoma): 35.5 µM
GI50 (TK-10 renal): 19.4 µM
TGI (TK-10 renal): 34.5 µM
GI50 (HCC-2998 colon): 17.3 µM
TGI (HCC-2998 colon): 34.8 µM
GI50 (RXF 393 renal): 16.9 µM
TGI (RXF 393 renal): 34 µM
GI50 (DU-145 prostate): 16.3 µM
TGI (DU-145 prostate): 32.6 µM
GI50 (T-47D breast): 12.3 µM
TGI (T-47D breast): 27.8 µM
GI50 (MOLT-4 leukemia): 15.5 µM
TGI (MOLT-4 leukemia): 31.7 µM
GI50 (SK-OV-3 ovarian): 19.7 µM
TGI (SK-OV-3 ovarian): 34.4 µM
GI50 (EKVX NSCLC): 15.9 µM
TGI (EKVX NSCLC): 32.5 µM
GI50 (SW-620 colon): 16.9 µM
TGI (SW-620 colon): 34.1 µM
GI50 (HCT-15 colon): 15.1 µM
TGI (HCT-15 colon): 31 µM
GI50 (NCI/ADR-RES ovarian): 16.6 µM
TGI (NCI/ADR-RES ovarian): 33.9 µM
GI50 (OVCAR-4 ovarian): 15.9 µM
TGI (OVCAR-4 ovarian): 32.8 µM
GI50 (CAKI-1 renal): 15.6 µM
TGI (CAKI-1 renal): 29.8 µM
GI50 (SK-MEL-2 melanoma): 17.8 µM
TGI (SK-MEL-2 melanoma): 33.1 µM
GI50 (U251 CNS): 16.5 µM
TGI (U251 CNS): 34.1 µM
GI50 (NCI-H522 lung): 16.2 µM
TGI (NCI-H522 lung): 33.6 µM
GI50 (HL-60(TB) leukemia): 16.8 µM
TGI (HL-60(TB) leukemia): 34.7 µM
GI50 (NCI-H460 lung): 17.1 µM
TGI (NCI-H460 lung): 33.8 µM
GI50 (OVCAR-3 ovarian): 18.3 µM
TGI (OVCAR-3 ovarian): 37.8 µM
GI50 (ACHN renal): 17.7 µM
TGI (ACHN renal): 33.8 µM
GI50 (PC-3 prostate): 12.9 µM
TGI (PC-3 prostate): 27.5 µM
GI50 (SK-MEL-5 melanoma): 12.8 µM
TGI (SK-MEL-5 melanoma): 27.3 µM
GI50 (SR leukemia): 17.1 µM
TGI (SR leukemia): 37.4 µM
GI50 (MDA-MB-435): 15.4 µM
TGI (MDA-MB-435): 30.3 µM
GI50 (SNB-19 CNS): 18 µM
TGI (SNB-19 CNS): 38.5 µM
GI50 (HOP-62 NSCLC): 21.3 µM
TGI (HOP-62 NSCLC): 39.2 µM
GI50 (IGROV1 ovarian): 22 µM
TGI (IGROV1 ovarian): 43.1 µM
GI50 (SF-539 CNS): 17.7 µM
TGI (SF-539 CNS): 34.6 µM
GI50 (KM12 colon): 14.8 µM
TGI (KM12 colon): 32.5 µM
GI50 (SF-295 CNS): 16.7 µM
TGI (SF-295 CNS): 33.1 µM
GI50 (CCRF-CEM leukemia): 18.2 µM
TGI (CCRF-CEM leukemia): 37.1 µM
GI50 (OVCAR-8 ovarian): 15.7 µM
TGI (OVCAR-8 ovarian): 33.8 µM
GI50 (BT-549 breast): 16.2 µM
TGI (BT-549 breast): 31.7 µM
GI50 (OVCAR-5 ovarian): 18.3 µM
TGI (OVCAR-5 ovarian): 35.3 µM
GI50 (A549 NSCLC): 17.3 µM
TGI (A549 NSCLC): 35.4 µM
GI50 (SNB-75 CNS): 14.3 µM
TGI (SNB-75 CNS): 28 µM
